Measured values published in US12667538B2, “Vilazodone pharmaceutical composition, preparation method therefor and use thereof” (SHANGHAI YONSUN BIOTECHNOLOGY CO., LTD., priority 2020, dated 2026).

Experiment: Particle size and distribution on a laser particle analyzer
Type: physicochemical
Conditions: drug substance used for formulas 14-23
Protocol: According to formula 1 shown in Table 1, the raw and auxiliary materials were weighed out and well mixed to obtain the suspension. The particle size was measured on a laser particle analyzer (parameter settings: dispersion medium: water; refractive index of dispersion medium: 1.333; absorbance of sample material: 0.05; refractive index of sample material: 1.711). The particle size morphology of the particles in the ground suspension was observed under a polarized light microscope. The particle size morphology of the solid particles of vilazodone in the suspension under the polarized light microscope is shown in FIG. 2.
The particle size of formulas 3, 4 and 5 and the distribution thereof were measured on a laser particle analyzer using the following parameter settings: dispersion medium: water; refractive index of dispersion medium: 1.333; absorbance of sample material: 0.05; refractive index of sample material: 1.711. The particle size and the distribution of formula 6 were measured on a nano particle size analyzer (NICOMP Particle Sizing Systems) using the following parameter settings: dispersion medium: water; refractive index of dispersion medium: 1.333; viscosity: 0.933 cp; temperature: 23° C.; luminous intensity setting: 300 kHz.
The particle size of formula 7 and the distribution thereof were measured on a laser particle analyzer using the following parameter settings: dispersion medium: water; refractive index of dispersion medium: 1.333; absorbance of sample material: 0.05; refractive index of sample material: 1.711. […]
According to the formulas shown in Table 12, the drug substance of different particle sizes and auxiliary materials were weighed out and well mixed by stirring to form suspensions, and formulas 8-13 were obtained. The particle size and the distribution thereof were measured on a laser particle analyzer using the following parameter settings: dispersion medium: water; refractive index of dispersion medium: 1.333; absorbance of sample material: 0.05; refractive index of sample material: 1.711. […]

D10: 8.4 μm
D50: 20.6 μm
D90: 43.9 μm
Structure (SMILES): Cl.N#Cc1ccc2[nH]cc(CCCCN3CCN(c4ccc5oc(C(N)=O)cc5c4)CC3)c2c1 [Vilazodone hydrochloride, 2-benzofurancarboxamide, 5-[4-[4-(5-cyano-1H-indol-3-yl)butyl]-1-piperazinyl] hydrochloride (1:1)]
